Data published in PubChem BioAssay (NCI).
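Where inhibition never reached the appropriate level, the endpoint shown equals the highest concentration tested. Otherwise, values were interpolated linearly from a five-concentration, 48-hour dose response in 96-well plates. The concentration for full growth arrest is given as TGI.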

How the values were obtained:
Assay in all cases: NCI anticancer screen, dose series, 48 h
786-0 renal = test system: 786-0 renal
A498 renal = test system: A498 renal
A549 NSCLC = test system: A549 NSCLC
ACHN renal = test system: ACHN renal
CAKI-1 renal = test system: CAKI-1 renal
COLO 205 colon = test system: COLO 205 colon
DLD-1 colon = test system: DLD-1 colon
DMS 114 small cell lung = test system: DMS 114 small cell lung
EKVX NSCLC = test system: EKVX NSCLC
HCC-2998 colon = test system: HCC-2998 colon
HCT-116 colon = test system: HCT-116 colon
HCT-15 colon = test system: HCT-15 colon
HL-60(TB) leukemia = test system: HL-60(TB) leukemia
HOP-62 NSCLC = test system: HOP-62 NSCLC
HOP-92 NSCLC = test system: HOP-92 NSCLC
HT29 colon = test system: HT29 colon
IGROV1 ovarian = test system: IGROV1 ovarian
K-562 leukemia = test system: K-562 leukemia
KM12 colon = test system: KM12 colon
KM20L2 colon = test system: KM20L2 colon
LOX IMVI melanoma = test system: LOX IMVI melanoma
LXFL 529 NSCLC = test system: LXFL 529 NSCLC
M14 melanoma = test system: M14 melanoma
M19-MEL melanoma = test system: M19-MEL melanoma
MALME-3M melanoma = test system: MALME-3M melanoma
MOLT-4 leukemia = test system: MOLT-4 leukemia
NCI-H226 lung = test system: NCI-H226 lung
NCI-H23 lung = test system: NCI-H23 lung
NCI-H460 lung = test system: NCI-H460 lung
OVCAR-3 ovarian = test system: OVCAR-3 ovarian
OVCAR-5 ovarian = test system: OVCAR-5 ovarian
OVCAR-8 ovarian = test system: OVCAR-8 ovarian
RPMI-8226 leukemia = test system: RPMI-8226 leukemia
RXF 393 renal = test system: RXF 393 renal
SF-268 CNS = test system: SF-268 CNS
SF-295 CNS = test system: SF-295 CNS
SF-539 CNS = test system: SF-539 CNS
SK-MEL-2 melanoma = test system: SK-MEL-2 melanoma
SK-MEL-28 melanoma = test system: SK-MEL-28 melanoma
SK-MEL-5 melanoma = test system: SK-MEL-5 melanoma
SK-OV-3 ovarian = test system: SK-OV-3 ovarian
SN12C renal = test system: SN12C renal
SNB-19 CNS = test system: SNB-19 CNS
SNB-75 CNS = test system: SNB-75 CNS
SNB-78 CNS = test system: SNB-78 CNS
SW-620 colon = test system: SW-620 colon
TK-10 renal = test system: TK-10 renal
U251 CNS = test system: U251 CNS
UACC-257 melanoma = test system: UACC-257 melanoma
UACC-62 melanoma = test system: UACC-62 melanoma
UO-31 renal = test system: UO-31 renal
CCRF-CEM leukemia = test system: CCRF-CEM leukemia
DMS 273 small cell lung = test system: DMS 273 small cell lung
NCI-H522 lung = test system: NCI-H522 lung
OVCAR-4 ovarian = test system: OVCAR-4 ovarian
SR leukemia = test system: SR leukemia
HOP-18 NSCLC = test system: HOP-18 NSCLC

Measured: TGI

Cc1nc(-c2nc(C)c(C(=O)/C=C/c3ccc([N+](=O)[O-])cc3)s2)sc1C(=O)/C=C/c1ccc([N+](=O)[O-])cc1
not listed: CCRF-CEM leukemia | DMS 273 small cell lung | NCI-H522 lung | OVCAR-4 ovarian | SR leukemia | HOP-18 NSCLC
> 100 µM: all other assays above

CNS(=O)(=O)NNS(=O)(=O)c1cccc([N+](=O)[O-])c1
not listed: A498 renal | HL-60(TB) leukemia | HOP-92 NSCLC | NCI-H226 lung | OVCAR-5 ovarian | SF-268 CNS | SK-MEL-28 melanoma | SK-OV-3 ovarian | SNB-78 CNS | HOP-18 NSCLC
> 100 µM: all other assays above

CC1=C(C(=O)CC(=O)C(=O)Nc2cccc(C)c2C)Sc2ccccc2N1
not listed: A498 renal | COLO 205 colon | KM20L2 colon | SNB-75 CNS | DMS 273 small cell lung | SR leukemia
> 100 µM: all other assays above
